According to the supplement of paper PMC7023306:
± gives the uncertainty stated by the source.

Test: TIMS collision cross section in N2 (TIMS CCS N2); higher = larger gas-phase ion size
Conditions: drift gas: N2 (99.4% N2, 0.6% O2), calibration: Stow et al. 2017 values for Agilent ESI-L Low Concentration Tune Mix, ionization: negative ESI
Description: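 Authentic plant natural product standards (10-50 ppm in 80% methanol) were analysed by UHPLC (BEH C18, 60 °C) coupled to a Bruker timsTOF Pro in negative ESI with N2 drift gas. TIMS collision cross sections were computed from mobility peak apices after calibration with Agilent Tune Mix using Stow et al. reference values. Values are the average of triplicate runs on different days, reported per annotated ion species (deprotonated ion, adducts, dimer, oxidized ion).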

SMILES | TIMS collision cross section in N2 (ion species: [M-H]-) [Å²] | TIMS collision cross section in N2 (ion species: [M-H+Na+HCO2H]-) [Å²] | other results
CC1(C)CCC2(C(=O)OC3OC(CO)C(O)C(O)C3O)CCC3(C)C(=CCC4C5(C)CC(O)C(OC6OC(CO)C(O)C(O)C6O)C(C)(C(=O)O)C5CCC43C)C2C1 (stereo not given) [3-Glc, 28-Glc medicagenic acid] | 300.86 ± 0.71 |  | 
O=c1c(-c2ccc(O)cc2)coc2cc(O)cc(O)c12 [Genistein] | 159.89 ± 0.26 |  | TIMS collision cross section in N2 (ion species: [2M-H]-): 249.93 ± 0.16 Å²
O=c1c(O)c(-c2cccc(O)c2O)oc2ccc(O)cc12 [3,6,2',3'-Tetrahydroxyflavone] | 161.7 ± 0.14 |  | TIMS collision cross section in N2 (ion species: [M-3H]-): 161.13 ± 0.17 Å²
O=C(O)[C@H]1O[C@@H](Oc2cc3oc(-c4ccc(O)cc4)cc(=O)c3c(O)c2O)[C@H](O)[C@@H](O)[C@@H]1O [Scutellarein-7-glucuronide] |  |  | TIMS collision cross section in N2 (ion species: [M-3H]-): 202.76 ± 0.54 Å²
O=c1c(-c2ccc(O)cc2)coc2cc(O[C@@H]3O[C@H](CO)[C@@H](O)[C@H](O)[C@H]3O)cc(O)c12 [Genistin] | 212.14 ± 0.076 |  | TIMS collision cross section in N2 (ion species: [M-H+HCO2H]-): 220.37 ± 0.15 Å²
O=c1cc(-c2ccccc2)oc2cc(O)c(O)c(O)c12 [Baicalein] |  |  | TIMS collision cross section in N2 (ion species: [M-3H]-): 158.42 ± 0.15 Å²
O=c1c(-c2ccc(O)c(O)c2)coc2cc(O)ccc12 [3',4',7-Trihydroxyisoflavone] | 161.78 ± 0.026 |  | TIMS collision cross section in N2 (ion species: [2M-H]-): 217.7 ± 0.21 Å²; TIMS collision cross section in N2 (ion species: [M-3H]-): 155.92 ± 0.067 Å²
COc1cc(O)c2c(=O)c(-c3ccc(O)cc3)coc2c1 [Prunetin] | 167.78 ± 0.0071 |  | TIMS collision cross section in N2 (ion species: [2M-H]-): 264.09 ± 0.09 Å²
COc1ccc([C@@H]2CC(=O)c3c(O)cc(O[C@@H]4O[C@H](CO)[C@@H](O)[C@H](O)[C@H]4O)cc3O2)cc1 [Isosakuranin] | 217.58 ± 0.11 |  | TIMS collision cross section in N2 (ion species: [M-H+HCO2H]-): 213.68 ± 0.13 Å²
COc1ccc(-c2oc3cc(OC)ccc3c(=O)c2O)cc1 [7,4'-Dimethoxy-3-hydroxyflavone] |  | 193.67 ± 0.15 | 
COc1ccc(-c2cc(=O)c3c(O)c(OC)c(O)cc3o2)cc1OC [Eupatilin] | 185.44 ± 0.18 | 201.78 ± 0.15 | 
O=c1c(-c2ccc(O)c(O)c2)coc2cc(O)ccc12 [7,3',4'-TRIHYDROXYISOFLAVONE] | 162.61 ± 0.21 |  | TIMS collision cross section in N2 (ion species: [M-3H]-): 156.67 ± 0.24 Å²
COc1ccc(C=CC(=O)c2ccccc2O)cc1 [2'-Hydroxy-4-methoxychalcone] | 164.38 ± 0.046 |  | 
COc1ccc(-c2coc3cc(O)cc(O)c3c2=O)cc1 [Biochanin A (5,7-Dihydroxy-4'-methoxyisoflavone)] | 166.11 ± 0.071 |  | TIMS collision cross section in N2 (ion species: [2M-H]-): 261.04 ± 0.32 Å²
O=c1cc(-c2ccccc2)oc2cccc(O)c12 [5-Hydroxyflavone] | 156 ± 0.14 | 173.98 ± 0.31 | 
O=C1c2c(O)cc(O)cc2O[C@H](c2ccc(O)cc2)[C@H]1O [Dihydrokaempferol] | 164.03 ± 0.16 | 186.44 ± 0.2 | TIMS collision cross section in N2 (ion species: [2M-H]-): 248.74 ± 0.038 Å²
O=c1cc(-c2ccc(O)cc2)oc2cc(O[C@@H]3O[C@H](CO)[C@@H](O)[C@H](O)[C@H]3O[C@@H]3OC[C@](O)(CO)[C@H]3O)cc(O)c12 [apiin] | 223.96 ± 0.26 |  | 
CCCCCCCCCCCCCCC(=O)O [Pentadecanoic acid] | 166.43 ± 0.15 |  | 
COc1ccc(-c2oc3c(CC=C(C)C)c(O[C@@H]4O[C@H](CO)[C@@H](O)[C@H](O)[C@H]4O)cc(O)c3c(=O)c2O[C@@H]2O[C@@H](C)[C@H](O)[C@@H](O)[C@H]2O)cc1 [Icariin] |  |  | TIMS collision cross section in N2 (ion species: [M-H+HCO2H]-): 256.3 ± 1.1 Å²
COc1cc(/C=C/C(=O)O)cc(O)c1O [5-Hydroxyferulic acid] | 141.26 ± 0.044 |  | 
O=C1CC(c2ccccc2)Oc2ccc(O)cc21 (stereo not given) [6-Hydroxyflavanone] | 156.92 ± 0.15 |  | TIMS collision cross section in N2 (ion species: [2M-H]-): 244.54 ± 0.11 Å²
COc1ccc(-c2cc(=O)c3c(O)cc(O[C@@H]4O[C@H](CO[C@@H]5O[C@@H](C)[C@H](O)[C@@H](O)[C@H]5O)[C@@H](O)[C@H](O)[C@H]4O)cc3o2)cc1O [Diosmin] | 233.82 ± 0.23 | 247.05 ± 0.28 | 
COc1ccc(C(=O)/C=C/c2ccccc2)c(O)c1 [2'-Hydroxy-4'-methoxychalcone] | 163.91 ± 0.055 |  | 

SMILES | TIMS collision cross section in N2 (ion species: [M-H]-) [Å²] | TIMS collision cross section in N2 (ion species: [M-H+Na+HCO2H]-) [Å²] | other results
O=c1cc(-c2ccccc2)oc2cc(O)ccc12 [7-Hydroxyflavone] | 153.67 ± 0.056 |  | TIMS collision cross section in N2 (ion species: [2M-H]-): 228.17 ± 0.39 Å²
O=c1cc(-c2ccc(O)cc2)oc2cc(OC3O[C@H](CO)[C@@H](O)[C@H](O)[C@H]3O)cc(O)c12 (stereo not given in full) [Apigenin-7-O-glucoside (apigetrin)] | 206.74 ± 0.14 | 228.65 ± 0.32 | 
COc1cc2oc(-c3ccc(O)cc3O)c(CC=C(C)C)c(=O)c2c(O)c1/C=C/C(C)C [Artocarpin] | 218.58 ± 0.23 | 229.53 ± 0.64 | 
O=c1c(O)c(-c2ccc(O)c(O)c2)oc2cc(O)ccc12 [Fisetin] | 162.38 ± 0.017 |  | TIMS collision cross section in N2 (ion species: [M-3H]-): 157.48 ± 0.065 Å²
O=c1c(O)c(-c2ccc(O)cc2O)oc2ccc(O)cc12 [3,6,2',4'-Tetrahydroxyflavone] | 161.99 ± 0.064 | 183.33 ± 0.05 | 
CC1(C)CC[C@]2(C)CC[C@]3(C)C(=CC[C@@H]4[C@@]5(C)CC[C@@H](O)[C@](C)(C(=O)O)[C@@H]5CC[C@]43C)[C@@H]2C1 [Boswellic acid, alpha-] | 222.31 ± 0.39 | 239.79 ± 0.21 | 
CCCCCCCCCCCCCC(=O)O [Myristic acid] | 162.69 ± 0.1 |  | 
Oc1cc(O)c2c(c1)O[C@@H](c1ccc(O)c(O)c1)[C@H](O)C2 [Catechin] | 156.67 ± 0.19 |  | 
C[C@@H]1O[C@@H](O[C@H]2[C@H](Oc3cc(O)c4c(c3)O[C@H](c3ccc(O)c(O)c3)CC4=O)O[C@H](CO)[C@@H](O)[C@@H]2O)[C@H](O)[C@H](O)[C@H]1O [eriodictyol-7-neohesperidoside] | 222.66 ± 0.095 | 234.56 ± 0.42 | TIMS collision cross section in N2 (ion species: [M-3H]-): 222.52 ± 0.16 Å²
C[C@H]1[C@H](C)CC[C@]2(C(=O)O)CC[C@]3(C)C(=CC[C@@H]4[C@@]5(C)C[C@@H](O)[C@H](O)[C@@](C)(CO)[C@@H]5CC[C@]43C)[C@H]12 [Asiatic acid] | 222.65 ± 0.35 |  | 
CC(C)=CCc1c(O)cc(O)c(C(=O)/C=C/c2ccc(O)cc2)c1O [Desmethylxanthohumol] | 183.45 ± 0.15 |  | 
CC(C)=CCC1=C(O)C(C(=O)CC(C)C)=C(O)C(CC=C(C)C)(CC=C(C)C)C1=O [Lupulone] | 201.76 ± 0.7 |  | 
CC(C)=CCc1c(O)ccc2c1O[C@H](c1ccc(O)cc1)CC2=O [isobavachin] | 185.17 ± 0.47 |  | TIMS collision cross section in N2 (ion species: [2M-H]-): 237.66 ± 0.46 Å²
O=c1c(O)c(-c2ccc(O)cc2)oc2cc(OC3OC(CO)C(O)C(O)C3O)cc(O)c12 (stereo not given) [kaempferol-7-O-glucoside] | 209.17 ± 0.14 | 230.04 ± 0.3 | TIMS collision cross section in N2 (ion species: [2M-H]-): 283.76 ± 0.75 Å²
O=c1c(O)c(-c2ccccc2)oc2cc(O)cc(O)c12 [galangin] | 156.93 ± 0.11 |  | TIMS collision cross section in N2 (ion species: [2M-H]-): 238 ± 0.12 Å²
COc1cc(-c2cc(=O)c3c(O)c(OC)c(O)c(OC)c3o2)cc(O)c1OC [scaposin] | 193.54 ± 0.18 | 209.41 ± 0.26 | 
O=c1c(-c2ccc(O)cc2)coc2cc(O)ccc12 [Daidzein] | 157.59 ± 0.0071 |  | TIMS collision cross section in N2 (ion species: [2M-H]-): 246.33 ± 0.2 Å²
O=c1c(O)c(-c2ccccc2)oc2ccccc12 [3-Hydroxyflavone] | 152.04 ± 0.28 | 172.34 ± 0.36 | 
COc1cc2c(=O)c(-c3ccc(O)cc3)coc2cc1O [Glycitein] | 166.87 ± 0.13 | 184.69 ± 0.23 | 
O=c1oc2cc(O)ccc2c2oc3cc(O)ccc3c12 [Coumestrol] | 155.75 ± 0.042 |  | TIMS collision cross section in N2 (ion species: [2M-H]-): 245.05 ± 0.43 Å²
COc1cc(-c2cc(=O)c3c(O)c(OC)c(O)cc3o2)cc(OC)c1O [5,7,4'-trihydroxy-6,3',5'-trimethoxyflavone] | 183.59 ± 0.17 | 202.32 ± 0.32 | 
COc1cc(O)c2c(c1)O[C@H](c1ccc(O)cc1)CC2=O [sakuranetin] | 168.54 ± 0.27 |  | 
C[C@@H]1O[C@@H](OC[C@H]2O[C@@H](Oc3c(-c4ccc(O)c(O)c4)oc4cc(O)cc(O)c4c3=O)[C@H](O)[C@@H](O)[C@@H]2O)[C@H](O)[C@H](O)[C@H]1O [Rutin] | 231.06 ± 0.2 |  | TIMS collision cross section in N2 (ion species: [M-3H]-): 219.55 ± 0.41 Å²
